Assay results as given in ChEMBL document CHEMBL1158801, “Acylphloroglucinol derivatives from Mahurea palustris” (J Nat Prod, 2005).
Activity calls are given as the source filed them. No cut-off for these calls is given here.

Tests used:
DNA polymerase beta = DNA polymerase beta (Homo sapiens, UniProt P06746); assay: Inhibition of human recombinant DNA polymerase beta assessed as fluorescein-12-dCTP incorporation by fluorimetry
[1] = tested on: Human immunodeficiency virus; assay: Inhibition of HIV reverse transcriptase at 50 uM

SMILES	IC50 (DNA polymerase beta)	fold change (FC) [1]	Activity (DNA polymerase beta)
CCC(C)C(=O)C1=C(O)OC2=C(C(CC(=O)O)c3ccccc3)C(C)(C)C(CCC(C)(C)OC(=O)C(F)(F)F)CC2(CC=C(C)C)C1=O (stereo not given)			inactive
CC(C)=CCC1CC2(CC=C(C)C)C(=O)C(C(=O)C(C)C)=C(O)OC2=C(C(CC(=O)O)c2ccccc2)C1(C)C (stereo not given)			inactive
CCC(C)C(=O)C1=C(O)OC2=C(C(CC(=O)O)c3ccccc3)C(C)(C)C(CCC(C)(C)NC(C)=O)CC2(CC=C(C)C)C1=O (stereo not given)			inactive
CCC(C)C(=O)C1=C(O)OC2=C(C(CC(=O)O)c3ccccc3)C(C)(C)C(CCC(C)(C)O)CC2(CC=C(C)C)C1=O (stereo not given)			inactive

Continued, values first:

IC50 (DNA polymerase beta)	fold change (FC) [1]	Activity (DNA polymerase beta)	SMILES
342 µM			CCCC(CC(=O)O)C1=C2OC(O)=C(C(=O)C(C)CC)C(=O)C2(CC=C(C)C)CC(CC=C(C)C)C1(C)C (stereo not given) [MAHUREONE E]
28 µM	2		CC(C)=CCC1CC2(CC=C(C)C)C(=O)C(C(=O)CC(C)C)=C(O)OC2=C(C(CC(=O)O)c2ccccc2)C1(C)C (stereo not given) [MAHUREONE A]
12 µM			CCCC(CC(=O)O)C1=C2OC(O)=C(C(=O)CC(C)C)C(=O)C2(CC=C(C)C)CC(CC=C(C)C)C1(C)C (stereo not given) [MAHUREONE D]
73 µM			CCC(C)C(=O)C1=C(O)OC2=C(C(CC(=O)O)c3ccccc3)C(C)(C)C(CC=C(C)C)CC2(CC=C(C)C)C1=O (stereo not given) [MAHUREONE B]
1.3 µM			Nc1ccn([C@H]2CC[C@@H](COP(=O)(O)OP(=O)(O)OP(=O)(O)O)O2)c(=O)n1 [ddCTP SODIUM]
